Reference: ChEMBL document CHEMBL5236657, “Synthesis and pharmacological validation of a novel radioligand for the orphan GPR88 receptor” (Bioorg Med Chem Lett, 2023)

Tests used:
[1] = target: T1, G protein-coupled receptor 88 (Homo sapiens, UniProt Q9GZN0)
Description: Displacement of [3H]RTI-33 from GPR88 (unknown origin) by competition binding assay

[2] = target: T1, G protein-coupled receptor 88; remark: listed apart in the source
Description: Agonist activity at GPR88 (unknown origin) transfected in HEK293 cells assessed as cAMP level by GloSensor cAMP assay

T1 sequence (Q9GZN0 whole entry): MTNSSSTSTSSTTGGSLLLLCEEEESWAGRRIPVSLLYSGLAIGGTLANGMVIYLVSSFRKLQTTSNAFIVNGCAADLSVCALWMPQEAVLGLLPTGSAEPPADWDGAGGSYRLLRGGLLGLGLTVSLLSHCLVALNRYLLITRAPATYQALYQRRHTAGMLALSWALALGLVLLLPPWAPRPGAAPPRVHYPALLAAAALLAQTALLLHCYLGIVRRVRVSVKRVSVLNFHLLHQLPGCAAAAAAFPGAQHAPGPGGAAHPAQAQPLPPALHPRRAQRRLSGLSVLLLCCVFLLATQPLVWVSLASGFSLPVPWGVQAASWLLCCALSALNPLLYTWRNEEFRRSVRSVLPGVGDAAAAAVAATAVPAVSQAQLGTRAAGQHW

Ki [1]: 219 nM
EC50 [2]: 304 nM
SMILES: CCCC(C)COc1ccc([C@H](CN)NC(=O)[C@@H](C)c2ccccc2)cc1 (some centres not stated)
